Tested on: stem cells isolated from rat cortex, differentiated with CNTF (astrocyte cultures)
Test: Expression profile of CNTF-differentiated rat cortex stem cells treated with VIP
Type: cell-based
Details: 5 μM VIP, one day
Method: VIP signature genes. Similar experiments were also performed in which cells were treated with vasoactive intestinal polypeptide (VIP), another drug useful for treating neuropsychiatric disorders. In more detail, stem cells were isolated and propagated from rat cortex. At passage 1, they were treated with 10 ng/ml ciliary neurotrophic factor (CNTF, available from R&D Systems, MN) for four days. 10 ng/ml of basic fibroblast growht factor (bFGF, R&D Systems, MN) was present in the medium on the first day of the differentiation regiment. […] Cells were then treated with 5 μM VIP (Sigma) for one day and harvested for expression profiling.
Signature genes were identified that changed expression when contacted with VIP compared to untreated cells. Each of these genes is listed below in Table 4, along with the measured expression ratio (ρ) and the GenBank Accession number for an exemplary cDNA sequence. The exemplary cDNA sequence for each gene is also provided here in the accompanying sequence listing. Accordingly, an appropriate sequence identifier is also specified in Table 4 for each listed gene.

Substance: vasoactive intestinal polypeptide [VIP]
- expression ratio σ: Cdk-inhibitor p57Kip2 (vs untreated, U22399 SEQ ID NO: 163): −1.8
- expression ratio σ: Rat EGF like protein (AF112153 SEQ ID NO: 164): 3.8
- expression ratio σ: Rat Interferon inducdible protein 16 (AF164040 SEQ ID NO: 168): 1.8
- expression ratio σ: similar to erythrocyte protein band 7.2 (BC003789 SEQ ID NO: 166): 2.2
- expression ratio σ: rat Dahl salt resistant strain clone etb (U02094 SEQ ID NO: 169): 1.8
- expression ratio σ: Rat tyrosine phosphatase like protein IA-2a (U40682 SEQ ID NO: 167): 2.0
- expression ratio σ: Rat interferon induced mRNA (X61381 SEQ ID NO: 165): 2.3

From patent US20030096264A1, “Multi-parameter high throughput screening assays (MPHTS)” (Psychiatric Genomics, Inc., priority 2001, published 2003)
